Experiment in all cases: inhibition of tumour cell growth, NCI panel, 48 h
Test [1] relates to BT-549 breast.
Test [2] concerns HCT-116 colon.
Test [3] relates to KM12 colon.
For test [4], the system named is K-562 leukemia.
Test [5] deals with NCI-H522 lung.
Test [6] relates to SW-620 colon.
In test [7] the test system is HCT-15 colon.
Test [8] relates to RXF 393 renal.

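Method: 48-hour compound exposure of cells in 96-well plates, five concentrations, linear interpolation of endpoints. Abbreviation: GI50, concentration required for 50% inhibition of growth. The concentration for full growth arrest is given as TGI.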

For the compound `CC(=O)Nc1ccc2c(c1)C(c1ccccc1Cl)=Nc1c(n[nH]c1C)N2`, the GI50 in test [1] was 6.58 µM; in test [2] it was 2.49 µM; in test [3], 0.253 µM; in test [4], 17.3 µM; in test [5] it was more than 15.9 µM; in test [6], 1.55 µM. Besides, the GI50 in test [7] was 10.8 µM; in test [8] it was 1.02 µM. Also, the TGI in test [1], in test [2], in test [3], in test [4], in test [5] and in test [6] was more than 25 µM each time. Further, the TGI in test [7] is more than 25 µM; in test [8], 9.59 µM.
For the compound `C/C(=N\NC(=S)N1CCCCC1)c1ccccn1`, the GI50 in test [1] was 0.745 µM; in test [2], less than 0.01 µM; in test [3], 0.0634 µM; in test [4] it was less than 0.01 µM; in test [5] it was 0.136 µM; in test [6] it was 0.0142 µM. In addition, the GI50 in test [7] was less than 0.0169 µM; in test [8], 0.295 µM. For the same compound, the TGI in test [1] amounted to 5.27 µM; in test [2], 1.52 µM; in test [3] it was 4.72 µM; in test [4], 8.76 µM; in test [5], 1.51 µM; in test [6], 7.18 µM. Besides, the TGI in test [7] is 12.6 µM; in test [8], 1.79 µM.
In the case of `CS(=O)(=O)Nc1cncc(-c2ccc3ncnc(Nc4ccc(F)c(Cl)c4)c3c2)c1`, the GI50 was 1.9 µM in test [1]; 1.97 µM in test [2]; 3.49 µM in test [3]; 3.88 µM in test [4]; 1.01 µM in test [5]; 3.15 µM in test [6]. Moreover, the GI50 in test [7] was 3.66 µM; in test [8], 1.49 µM. Also, the TGI turned out to be 7.98 µM in test [1]; 5.77 µM in test [2]; 13.3 µM in test [3]; 20.1 µM in test [4]; 4.1 µM in test [5]; 11.8 µM in test [6]. The TGI in test [7] came out at 16 µM; in test [8], 5.87 µM.
Take `c1cc(NNc2cccc(-c3nn[nH]n3)c2)cc(-c2nn[nH]n2)c1`: the TGI in test [1], in test [2], in test [3], in test [4], in test [5] and in test [6] was more than 100 µM each time. For the same compound, the TGI in test [7] and in test [8] was more than 100 µM each time.
As to `O=c1[nH]c2ccccc2c2ccccc12`, the GI50 in test [1], in test [2], in test [3], in test [4], in test [5] and in test [6] was more than 100 µM throughout. In addition, the GI50 in test [7] and in test [8] was more than 100 µM throughout. For the same compound, the TGI in test [1], in test [2], in test [3], in test [4], in test [5] and in test [6] was more than 100 µM throughout. Further, the TGI in test [7] and in test [8] was more than 100 µM in each case.
Take `COc1ccc(/C=C/C(=O)c2cc(OC)c(OC)c(OC)c2)cc1OCC(=O)Nc1nc2ccc(OC(F)(F)F)cc2s1`: the GI50 was 2.71 µM in test [1]; 1.43 µM in test [2]; 1.51 µM in test [3]; 0.438 µM in test [4]; 0.671 µM in test [5]; 1.08 µM in test [6]. Also, the GI50 in test [7] is 0.407 µM; in test [8] it was 1.58 µM. The TGI is 29.6 µM in test [1]; 3.15 µM in test [2]; 4.19 µM in test [3]; 10.2 µM in test [4]; 3.36 µM in test [5]; more than 100 µM in test [6]. For the same compound, the TGI in test [7] amounted to 10.9 µM; in test [8], 3.74 µM.
For the compound `O=C1CSCc2sccc21`, the TGI in test [1], in test [2], in test [3], in test [4], in test [5] and in test [6] was more than 100 µM each time. Further, the TGI in test [7] and in test [8] was more than 100 µM each time.
For `O=Nc1ccc(O)c(=O)cc1`, the GI50 in test [1] is 2.86 µM; in test [2], 0.961 µM; in test [3], 5.99 µM; in test [4] it was 0.498 µM; in test [5], 0.141 µM; in test [6] it was 0.657 µM. Also, the GI50 was 2.37 µM in test [7] and 0.572 µM in test [8]. Besides, the TGI was 8.75 µM in test [1]; 3.49 µM in test [2]; 16.3 µM in test [3]; more than 100 µM in test [4]; 0.524 µM in test [5]; 2.35 µM in test [6]. For the same compound, the values for the TGI in test [7] and in test [8] were 9.62 µM and 1.59 µM, respectively.
For the compound `CC(=O)c1ccc2c(c1)c1cc(C(C)=O)ccc1n2CCNC(C)C`, the GI50 in test [1] is 1.29 µM; in test [2], 0.251 µM; in test [3], 0.427 µM; in test [4] it was 0.332 µM; in test [5], 0.257 µM; in test [6], 0.249 µM. Further, the GI50 in test [7] is 0.352 µM; in test [8], 0.289 µM. Besides, the TGI turned out to be 3.97 µM in test [1]; 3.69 µM in test [2]; 3.4 µM in test [3]; 1.81 µM in test [4]; 1.13 µM in test [5]; 2.34 µM in test [6]. Also, the TGI in test [7] turned out to be 3.82 µM; in test [8], 1.79 µM.
As for `CCOC(=O)c1cc(C(=O)c2cc(OC)c(OC)c(OC)c2)n2ncccc12`, the GI50 was 0.761 µM in test [1]; 0.276 µM in test [2]; 0.342 µM in test [3]; 0.124 µM in test [4]; 0.29 µM in test [5]; 0.185 µM in test [6]. The GI50 in test [7] is 0.251 µM; in test [8], 0.215 µM. Further, the TGI in test [1] was more than 100 µM; in test [2], more than 100 µM; in test [3] it was more than 100 µM; in test [4] it was more than 100 µM; in test [5] it was more than 21.7 µM; in test [6] it was more than 100 µM. Also, the values for the TGI in test [7] and in test [8] were more than 100 µM and 1.84 µM, respectively.
Consider `c1ccc2sc(SCCSc3nc4ccccc4s3)nc2c1`, for which the TGI in test [1], in test [2], in test [3], in test [4], in test [5] and in test [6] was more than 100 µM each time. Besides, the TGI in test [7] and in test [8] was more than 100 µM each time.
`Cc1nc2ccc(Nc3nc(Cl)nc(N4CCOCC4)n3)cc2n1Cc1ccccc1`: the GI50 in test [1] was 2.89 µM; in test [2], 5.16 µM; in test [3], more than 100 µM; in test [4] it was 2.82 µM; in test [5], 2.98 µM; in test [6], 3.1 µM. Besides, the values for the GI50 in test [7] and in test [8] were 2.94 µM and 1.85 µM, respectively. Also, the TGI in test [1] was 29.4 µM; in test [2], 89 µM; in test [3], more than 100 µM; in test [4], more than 100 µM; in test [5], 20.8 µM; in test [6], more than 100 µM. Also, the TGI in test [7] is 14.1 µM; in test [8], 3.58 µM.
Consider `COc1ccc(/C=C(/C#N)C(N)=O)c(OC)c1`, for which the TGI in test [1], in test [2], in test [3], in test [4], in test [5] and in test [6] was more than 100 µM in each case. Further, the TGI in test [7] and in test [8] was more than 100 µM in each case.
With `COc1ccc2c(c1)/C(=C\c1c(-c3cc(OC)ccc3OC)nc3sc(C)cn13)C(=O)N2C`, the GI50 was 32.3 µM in test [1]; 22.3 µM in test [2]; 37.7 µM in test [3]; 28 µM in test [4]; 29.6 µM in test [5]; 42.6 µM in test [6]. Further, the figures for the GI50 in test [7] and in test [8] were 33.9 µM and more than 100 µM, respectively. In addition, the TGI in test [1], in test [2], in test [3], in test [4], in test [5] and in test [6] was more than 100 µM in each case. The TGI in test [7] and in test [8] was more than 100 µM each time.
On to `CC(N)C(Cc1ccc(Cl)cc1)c1ccc(Cl)cc1` (stereo not given), for which the GI50 in test [1] was 13.7 µM; in test [2] it was 4.05 µM; in test [3] it was 8.48 µM; in test [4] it was 3.05 µM; in test [5], 11.4 µM; in test [6] it was 4.46 µM. In addition, the GI50 in test [7] is 4.15 µM; in test [8] it was 11.7 µM. The TGI in test [1] was determined as 28.1 µM; in test [2] it was 16.4 µM; in test [3], 22.6 µM; in test [4] it was 10.8 µM; in test [5], 26.1 µM; in test [6], 16.9 µM. In addition, the results for the TGI in test [7] and in test [8] were 17.5 µM and 25.5 µM, respectively.
As to `NNC(=S)N/N=C(\C(=O)Nc1cccc(O)c1)C1C(=O)NC(=S)NC1=O`, the TGI in test [1], in test [2], in test [3], in test [4], in test [5] and in test [6] was more than 100 µM each time. The TGI in test [7] and in test [8] was more than 100 µM each time.
With `Cc1cc(S(=O)(=O)Nc2nc3ccccc3o2)c(SCc2ccccc2)cc1Cl`, the GI50 is 30.5 µM in test [1]; 13.8 µM in test [2]; 18.4 µM in test [3]; 31.8 µM in test [4]; more than 100 µM in test [5]; 20.6 µM in test [6]. Further, the figures for the GI50 in test [7] and in test [8] were 21.5 µM and 29.5 µM, respectively. Also, the TGI in test [1] was 79.3 µM; in test [2], 33.4 µM; in test [3], 43.4 µM; in test [4], more than 100 µM; in test [5], more than 100 µM; in test [6], 56.4 µM. The values for the TGI in test [7] and in test [8] were 52.8 µM and 61.5 µM, respectively.
With `CCN(CCCN(C)C)Cc1cc(I)cc(C)c1O`, the GI50 in test [1] is 12.7 µM; in test [2], 14.6 µM; in test [3], 20 µM; in test [4] it was 6.95 µM; in test [5], 18.7 µM; in test [6] it was 17.1 µM. In addition, the GI50 is 21.5 µM in test [7] and 17.1 µM in test [8]. For the same compound, the TGI in test [1] was found to be 27.9 µM; in test [2], 32 µM; in test [3], 44.7 µM; in test [4], 23.3 µM; in test [5], 36.4 µM; in test [6] it was 31.9 µM. For the same compound, the TGI in test [7] is 49.4 µM; in test [8] it was 51.1 µM.
With `COC[C@@H](N=C1NC(=O)/C(=C/c2ccc3ncccc3c2)S1)c1ccccc1`, the GI50 in test [1] was 7.85 µM; in test [2], 8.73 µM; in test [3] it was 10.8 µM; in test [4] it was 10.3 µM; in test [5], 7.7 µM; in test [6], 8.91 µM. Further, the GI50 was 7.01 µM in test [7] and 6.47 µM in test [8]. For the same compound, the TGI in test [1] was more than 25 µM; in test [2], more than 25 µM; in test [3] it was more than 25 µM; in test [4], more than 25 µM; in test [5], more than 23.3 µM; in test [6] it was more than 25 µM. Besides, the values for the TGI in test [7] and in test [8] were more than 25 µM and more than 24.2 µM, respectively.
In the case of `COc1cc(Nc2nc3cc(N)cc(N)c3nc2-c2ccccc2)cc(OC)c1OC`, the GI50 in test [1] is 16.8 µM; in test [2], 15.4 µM; in test [3], 10.6 µM; in test [4], 12.5 µM; in test [5], 18.2 µM; in test [6] it was 24.1 µM. Further, the values for the GI50 in test [7] and in test [8] were 15.3 µM and 14.4 µM, respectively. In addition, the TGI is 33.6 µM in test [1]; 34.1 µM in test [2]; 29.5 µM in test [3]; 40.1 µM in test [4]; 53.1 µM in test [5]; more than 100 µM in test [6]. The results for the TGI in test [7] and in test [8] were 45.4 µM and 34.4 µM, respectively.

(Values after PubChem BioAssay (NCI).)
